Laboratory results reported in publication PMC4792161, “A novel pyrazole derivative protects from ovariectomy-induced osteoporosis through the inhibition of NADPH oxidase” (Scientific Reports, 2016).

Experiments:
[1] = biological target: T1, human Nox4 (Homo sapiens, UniProt Q9NPH5); test: Nox inhibitor screening, Drosophila membranes over-expressing human Nox4, ROS chemiluminescence; format: biochemical; conditions: hNox4 Drosophila membranes
T1 construct: made in house; host or cells: transgenic Drosophila (Duox knockdown, Da-GAL4 driven UAS-hNOX4); membrane-enriched fly homogenate
T1 sequence (Q9NPH5 1-578): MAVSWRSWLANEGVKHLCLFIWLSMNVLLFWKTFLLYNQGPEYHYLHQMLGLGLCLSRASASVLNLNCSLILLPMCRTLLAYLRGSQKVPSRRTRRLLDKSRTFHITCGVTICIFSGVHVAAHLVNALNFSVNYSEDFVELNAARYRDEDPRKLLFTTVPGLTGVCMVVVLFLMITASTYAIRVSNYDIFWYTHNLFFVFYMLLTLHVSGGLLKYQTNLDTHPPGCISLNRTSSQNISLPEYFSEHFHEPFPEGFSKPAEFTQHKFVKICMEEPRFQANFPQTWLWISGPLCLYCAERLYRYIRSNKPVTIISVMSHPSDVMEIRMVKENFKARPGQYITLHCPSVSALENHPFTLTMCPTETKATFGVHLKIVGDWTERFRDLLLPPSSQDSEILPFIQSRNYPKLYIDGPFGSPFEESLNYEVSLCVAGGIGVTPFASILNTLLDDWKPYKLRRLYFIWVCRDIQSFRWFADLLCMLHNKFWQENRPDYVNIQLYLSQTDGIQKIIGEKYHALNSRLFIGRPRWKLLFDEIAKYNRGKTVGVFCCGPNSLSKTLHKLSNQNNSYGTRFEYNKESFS
Description: (§1) Purified Drosophila membranes expressing human Nox1, Nox2, or Nox4 were used to monitor ROS production by determining the oxidation of lucigenin, evident as chemiluminescence, in the absence or presence of chemical compound[18].
(§2) Drosophila membranes specifically overexpressing hNox1, hNox2, and hNox4 were subjected into ROS measurement with Diogene.
(§3) The genotypes used were human Nox1 (UAS-hNOX1/UAS-DUOX-RNAi; Da-GAL4/+), Nox2 (UAS-hNOX2/UAS-DUOX-RNAi; Da-GAL4/+) and Nox4 (UAS-hNOX4/UAS-DUOX-RNAi; Da-GAL4/+). Transgenic flies were homogenated with ice-cold PBS containing protease inhibitors and membrane-enriched human Nox1, 2, or 4 were harvested. Membranes containing human Nox1, 2, or 4 served to monitor ROS production by lucigenin chemiluminescence in the absence or presence of chemical compound[18].

[2] = Pharmacokinetics after IV and oral administration to rats; format: in vivo
Description: Supplementary Table S1. Pharmacokinetic parameters of Ewha-89403 following IV and oral administration at the doses of 1 mg/kg and 10 mg/kg, respectively, to rats (n=4-5) PK Parameters IV Injection Oral Administration
Absolute Bioavailability (BA) = 4.3 %
Supplementary Table S2. Pharmacokinetic parameters of Ewha-18278 following IV and oral administration at the doses of 2 mg/kg and 20 mg/kg, respectively, to rats (n=5-6) […]
Absolute Bioavailability (BA) = 63.8 %

[3] = biological target: glucose oxidase (Aspergillus niger, UniProt P13006); test: Glucose oxidase assay (lucigenin); format: biochemical
Sequence of glucose oxidase (P13006 17-605, species assumed): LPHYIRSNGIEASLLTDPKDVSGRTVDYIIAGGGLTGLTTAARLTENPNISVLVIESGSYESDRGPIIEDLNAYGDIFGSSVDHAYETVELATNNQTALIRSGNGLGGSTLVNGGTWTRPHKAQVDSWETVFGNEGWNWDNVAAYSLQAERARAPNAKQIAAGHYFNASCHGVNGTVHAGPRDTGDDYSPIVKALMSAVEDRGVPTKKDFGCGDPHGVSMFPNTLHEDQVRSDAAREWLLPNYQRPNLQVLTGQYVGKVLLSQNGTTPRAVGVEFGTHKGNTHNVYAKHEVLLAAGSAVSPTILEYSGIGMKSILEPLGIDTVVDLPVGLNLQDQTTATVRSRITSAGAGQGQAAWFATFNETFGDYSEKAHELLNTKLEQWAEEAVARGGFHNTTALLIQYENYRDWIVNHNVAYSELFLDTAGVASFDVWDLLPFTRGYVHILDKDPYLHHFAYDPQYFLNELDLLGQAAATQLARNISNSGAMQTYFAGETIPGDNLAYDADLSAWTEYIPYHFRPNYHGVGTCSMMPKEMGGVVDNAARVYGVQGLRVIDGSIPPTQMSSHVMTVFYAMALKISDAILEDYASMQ
Description: Glucose oxidase activity was measured by lucigenin. Reaction mixtures contained 0.75 mM glucose, 0.25 mg/ml glucose oxidase, and 0.4 mM lucigenin with the indicated inhibitor (0–20μM). Luminescence was measured over 30 min at 37 °C with luminometor (DTX800, Beckman coulter).

[4] = biological target: xanthine oxidase (Bos taurus, UniProt P80457); test: Xanthine oxidase assay (lucigenin); format: biochemical
Sequence of xanthine oxidase (P80457 2-1332): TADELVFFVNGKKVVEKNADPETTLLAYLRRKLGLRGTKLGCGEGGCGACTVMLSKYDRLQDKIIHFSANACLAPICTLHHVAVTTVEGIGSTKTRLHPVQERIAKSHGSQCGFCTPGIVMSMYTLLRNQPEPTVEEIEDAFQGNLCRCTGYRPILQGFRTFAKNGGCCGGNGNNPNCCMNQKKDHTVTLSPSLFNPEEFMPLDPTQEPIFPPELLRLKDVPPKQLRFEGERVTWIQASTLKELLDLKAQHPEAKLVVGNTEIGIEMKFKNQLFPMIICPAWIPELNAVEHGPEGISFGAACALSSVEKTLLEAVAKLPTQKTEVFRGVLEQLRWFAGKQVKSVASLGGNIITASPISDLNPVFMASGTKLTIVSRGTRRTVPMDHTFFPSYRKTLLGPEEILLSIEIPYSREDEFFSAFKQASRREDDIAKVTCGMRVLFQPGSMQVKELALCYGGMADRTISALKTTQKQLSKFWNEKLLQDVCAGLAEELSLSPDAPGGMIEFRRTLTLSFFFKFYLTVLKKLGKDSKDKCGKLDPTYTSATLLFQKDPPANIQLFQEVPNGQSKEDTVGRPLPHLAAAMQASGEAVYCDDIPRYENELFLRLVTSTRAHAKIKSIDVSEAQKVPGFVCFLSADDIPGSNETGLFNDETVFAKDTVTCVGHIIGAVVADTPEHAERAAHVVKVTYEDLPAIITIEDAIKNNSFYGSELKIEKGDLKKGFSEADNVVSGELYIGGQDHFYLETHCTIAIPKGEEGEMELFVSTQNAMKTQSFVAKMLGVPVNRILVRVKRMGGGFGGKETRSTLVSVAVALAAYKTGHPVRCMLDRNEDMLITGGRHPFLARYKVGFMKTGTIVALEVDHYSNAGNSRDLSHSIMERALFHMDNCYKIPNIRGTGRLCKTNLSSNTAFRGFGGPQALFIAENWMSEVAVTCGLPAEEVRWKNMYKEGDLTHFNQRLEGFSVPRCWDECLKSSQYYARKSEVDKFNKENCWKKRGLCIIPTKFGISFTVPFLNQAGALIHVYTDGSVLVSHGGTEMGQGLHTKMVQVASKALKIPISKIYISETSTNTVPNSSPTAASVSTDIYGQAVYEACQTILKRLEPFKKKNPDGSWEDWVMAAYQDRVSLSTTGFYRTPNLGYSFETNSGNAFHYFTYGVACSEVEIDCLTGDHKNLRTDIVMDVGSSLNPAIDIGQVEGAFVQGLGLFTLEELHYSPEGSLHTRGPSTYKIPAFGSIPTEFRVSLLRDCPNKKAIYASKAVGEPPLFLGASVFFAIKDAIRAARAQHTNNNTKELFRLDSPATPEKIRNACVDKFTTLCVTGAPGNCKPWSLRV
Description: Xanthine oxidase activity was measured by lucigenin. Reaction mixtures contained 0.1 mU xanthine oxidase, 0.25 mM Xanthine, and 0.4 mM lucigenin with the indicated inhibitor (0–20 μM). Luminescence measured over 30 min at 37 °C with luminometor (DTX800, Beckman coulter).

[5] = biological target: T2, human Nox2 (Homo sapiens, UniProt P04839); test: Nox inhibitor screening, Drosophila membranes over-expressing human Nox2, ROS chemiluminescence; format: biochemical; conditions: hNox2 Drosophila membranes
T2 construct: made in house; host or cells: transgenic Drosophila (Duox knockdown, Da-GAL4 driven UAS-hNOX2); membrane-enriched fly homogenate
T2 sequence (P04839 2-570 limits assumed): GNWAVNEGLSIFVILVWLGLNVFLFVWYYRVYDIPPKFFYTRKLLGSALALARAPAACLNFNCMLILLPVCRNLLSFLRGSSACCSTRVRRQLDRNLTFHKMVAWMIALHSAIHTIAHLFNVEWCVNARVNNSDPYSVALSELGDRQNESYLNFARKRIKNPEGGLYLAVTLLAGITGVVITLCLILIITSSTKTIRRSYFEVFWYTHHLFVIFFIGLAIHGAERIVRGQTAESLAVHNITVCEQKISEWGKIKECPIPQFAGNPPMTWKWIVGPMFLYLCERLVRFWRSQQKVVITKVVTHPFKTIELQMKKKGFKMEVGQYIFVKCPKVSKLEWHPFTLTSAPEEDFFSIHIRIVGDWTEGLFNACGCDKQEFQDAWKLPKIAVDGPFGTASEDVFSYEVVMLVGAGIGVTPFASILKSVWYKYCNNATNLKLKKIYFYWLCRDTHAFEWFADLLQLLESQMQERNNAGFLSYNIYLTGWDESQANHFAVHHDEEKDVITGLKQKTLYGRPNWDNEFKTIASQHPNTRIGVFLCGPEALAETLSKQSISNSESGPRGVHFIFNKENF
Description: as §1, §2, §3

[6] = biological target: T3, human Nox1 (Homo sapiens, UniProt Q9Y5S8); test: Nox inhibitor screening, Drosophila membranes over-expressing human Nox1, ROS chemiluminescence; format: biochemical; conditions: hNox1 Drosophila membranes
T3 construct: made in house; host or cells: transgenic Drosophila (Duox knockdown, Da-GAL4 driven UAS-hNOX1); membrane-enriched fly homogenate
T3 sequence (Q9Y5S8 1-564): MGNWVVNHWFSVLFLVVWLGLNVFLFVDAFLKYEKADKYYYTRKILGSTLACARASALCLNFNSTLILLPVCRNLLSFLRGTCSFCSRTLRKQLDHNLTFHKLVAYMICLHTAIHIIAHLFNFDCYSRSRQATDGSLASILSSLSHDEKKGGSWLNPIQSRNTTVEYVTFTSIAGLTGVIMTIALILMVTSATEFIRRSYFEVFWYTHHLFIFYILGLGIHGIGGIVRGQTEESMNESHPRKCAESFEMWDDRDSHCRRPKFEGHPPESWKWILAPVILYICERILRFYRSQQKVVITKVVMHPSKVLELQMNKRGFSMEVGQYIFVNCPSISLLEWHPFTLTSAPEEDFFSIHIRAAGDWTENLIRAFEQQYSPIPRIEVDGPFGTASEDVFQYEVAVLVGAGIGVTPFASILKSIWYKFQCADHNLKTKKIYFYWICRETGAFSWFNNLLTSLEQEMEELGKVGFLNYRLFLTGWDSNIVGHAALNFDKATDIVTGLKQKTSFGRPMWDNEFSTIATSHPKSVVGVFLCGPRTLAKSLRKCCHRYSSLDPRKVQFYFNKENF
Description: as §1, §2, §3

Compound: Oc1cc(-c2ccccc2)nn1-c1ccccn1 [Ewha-89403, 3-phenyl-1-(pyridin-2-yl)-1H-5-hydroxypyrazole]
- Ki [1]: 3120 nM
- Clt ([2]; IV 1 mg/kg): 1277 ± 162.1 mL/h
- AUC(0-inf) ([2]; rat, in vivo, IV 1 mg/kg): 418 ± 56 ng·h/mL
- AUC(0-t) ([2]; rat, in vivo, IV 1 mg/kg): 343 ± 45 ng·h/mL
- C0 ([2]; rat, in vivo, IV 1 mg/kg): 2520 ± 837 ng/mL
- Vd ([2]; rat, in vivo, IV 1 mg/kg): 2.64 ± 1.41 L
- half-life ([2]; rat, in vivo, IV 1 mg/kg): 1.43 ± 0.723 h
- bioavailability ([2]; rat, in vivo, IV 1 mg/kg and oral 10 mg/kg, read-out: Absolute Bioavailability (BA)): 4.3%
- AUC(0-inf) ([2]; rat, in vivo, oral 10 mg/kg): 302 ± 133 ng·h/mL
- AUC(0-t) ([2]; rat, in vivo, oral 10 mg/kg): 149 ± 39 ng·h/mL
- Cmax ([2]; rat, in vivo, oral 10 mg/kg): 194 ± 54 ng/mL
- Tmax ([2]; rat, in vivo, oral 10 mg/kg): 6.12 ± 2.34 min
- half-life ([2]; rat, in vivo, oral 10 mg/kg): 3.3 ± 2.08 h
- inhibitory activity on glucose oxidase [3]: no inhibitory activities
- inhibitory activity on xanthine oxidase [4]: no inhibitory activities
- Ki [5]: 2570 nM
- Ki [6]: 1450 nM
